Patent US20060089395A1, “Nf-kb activation inhibitors” (priority 2002, published 2006)
Entries after “also recorded” stand apart in the source; their conditions may differ. Where two headings read alike, the source gives them in different places.

How the values were obtained:
[1] = system: IL-6; test: Inhibition of IL-6 production by TNFα stimulation in synovial fibroblasts derived from a rheumatoid patient (ELISA); assay type: cell-based, human; details: for IC50: synovial fibroblasts, read-out: Inhibition against Mediator Release IC50(nM) IL-6
Experimental: (§1) Synovial fibroblasts (Human Synoviocyte (RA-Positive), Toyobo, T4040-05) were cultured for 3 days in a medium containing 10 ng/ml of TNFα and a test compound. IL-6 and IL-8 in the supernatant were measured by the ELISA method, and PGE2 (prostaglandin E2) was measured by the EIA method.

[2] = system: IL-8; test: Inhibition of IL-8 production by TNFα stimulation in synovial fibroblasts derived from a rheumatoid patient (ELISA); assay type: cell-based, human; details: for inhibition at 1 µM: 72 h, 1000 nM, in parentheses, read-out: Inhibitory ratios (%) at 1000 nM, IL-8; for IC50: synovial fibroblasts, read-out: Inhibition against Mediator Release IC50(nM) IL-8
Experimental: as §1

[3] = system: PGE2; test: Inhibition of PGE2 production by TNFα stimulation in synovial fibroblasts derived from a rheumatoid patient (EIA); assay type: cell-based, human; details: for Inhibitory ratios (%) at 1000 nM, PGE2: in parentheses; for IC50: synovial fibroblasts, read-out: Inhibition against Mediator Release IC50(nM) PGE2
Experimental: as §1

[4] = system: NF-κ B; test: Inhibitory activity of NF-κ B activation, luciferase reporter assay in HepG2 under TNF-α stimulation; assay type: cell-based, human; details: HepG2, TNF-α (40 ng/ml), 4 hours
In short: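 Readout is firefly luciferase luminescence, expressed as inhibition versus compound-free wells. Before this, HepG2 cells carrying a transiently transfected 5×NF-κB-site luciferase plasmid (6–24 h post-transfection) received test compound plus TNF-α (40 ng/ml) for 4 h.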

[5] = system: Vascular smooth muscle cells of normal coronary artery (Cryo CASMC); test: Inhibitory test against proliferation of vascular smooth muscle cells of normal coronary artery under proliferation stimulation (MTS assay); assay type: cell-based; details: FGF and EGF stimulation, 72 hours
Experimental: Vascular smooth muscle cells of normal coronary artery (Cryo CASMC) were cultured for 2 hours in the presence or absence of a test substance in DMEM medium containing 0.5% of FBS and insulin (5 u g/ml). Then, FGF and EGF were added for proliferation stimulation. The mixture was cultured for 72 hours and proliferation of the cells were measured by the MTS assay. The results aree shown in the following

[6] = Homo sapiens, Fibroblast, comparison compounds, TNFα stimulation
[7] = Homo sapiens, Fibroblast, 72 h, 10 ng/ml TNFα, 3 days
[8] = rheumatic patient-derived synovial fibroblasts under TNFα stimulation

| SMILES | IC50 [1, 6] | inhibition at 1 µM ([2]; Homo sapiens, Fibroblast) | IC50 [2, 6] | IC50 [3, 6] | IC50 ([1]; 10 ng/ml TNFα, 3 days) | IC50 ([3]; 10 ng/ml TNFα, 3 days) | Inhibitory Ratio of NF-κ B Activation(%) Drug Concentration 1 μg/mL ([4]; 1 μg/mL) | Inhibitory Ratio of NF-κ B Activation(%) Drug Concentration 10 μg/mL ([4]; 10 μg/mL) | also measured |
| --- | --- | --- | --- | --- | --- | --- | --- | --- | --- |
| O=C(Nc1ccc(C(F)(F)F)cc1Cl)c1cc(Br)ccc1O [Reference Example 7, N-[2-chloro-4-(trifluoromethyl)phenyl]-5-bromo-2-hydroxybenzamide, reference compound] | > 1000 nM | 16% | > 1000 nM | > 1000 nM | – | – | – | – | Inhibitory ratios (%) at 1000 nM, IL-6 ([1]; 1000 nM, in parentheses): 27%; Inhibitory ratios (%) at 1000 nM, PGE2 [3]: 10% |
| O=C(Nc1cc(C(F)(F)F)cc(C(F)(F)F)c1)c1c(O)ccc2ccccc12 [Compound No. 73] | – | – | – | – | 337 nM | 662 nM | 93.1% | 97.9% | IC50 ([2]; 10 ng/ml TNFα, 3 days): 670 nM |
| COc1ccc(C(C)(C)C)cc1NC(=O)c1cc(Cl)ccc1O [Compound No. 135, 5-chloro-N-{5-[(1,1-dimethyl)ethyl]-2-methoxyphenyl}-2-hydroxybenzamide] | – | – | – | – | – | – | – | – | IC50 [1, 7]: 61 nM; inhibition of the production of IL-6 (in words) [1, 8]: potently inhibited; also recorded: strongly inhibited; inhibition of the production of IL-8 (in words) [2, 8]: potently inhibited; also recorded: strongly inhibited; IC50 [3, 7]: 41 nM; inhibition of the production of PGE2 (in words) [3, 8]: potently inhibited; also recorded: strongly inhibited; inhibition at 1 µg/mL ([4]; Homo sapiens, 1 μg/mL, read-out: Inhibitory Ratio of NF-κ B Activation(%) Drug Concentration 1 μg/mL): 86.2%; inhibition at 10 µg/mL ([4]; Homo sapiens, 10 μg/mL, read-out: Inhibitory Ratio of NF-κ B Activation(%) Drug Concentration 10 μg/mL): 99.2% |
| O=C(Nc1ccc(Cl)c(C(F)(F)F)c1)c1cc(Br)ccc1O [Reference Example 5, N-[4-chloro-3-(trifluoromethyl)phenyl]-5-bromo-2-hydroxybenzamide, reference compound] | 91 nM | 16% | > 1000 nM | 57 nM | – | – | – | – | – |
| O=C(Nc1cc(Cl)cc(Cl)c1)c1cc(Cl)ccc1O [Compound No. 125] | – | – | – | – | 903 nM | 966 nM | 84.5% | 96.8% | – |
| O=C(Nc1ccc(C(F)(F)F)cc1C(F)(F)F)c1cc(Cl)ccc1O [Reference Example 1, N-[2,4-bis(trifluoromethyl)phenyl]-5-chloro-2-hydroxybenzamide, reference compound] | 202 nM | -70% | > 1000 nM | > 1000 nM | – | – | – | – | Inhibitory ratios (%) at 1000 nM, PGE2 [3]: 1.2% |
| O=C(Nc1ccc(F)cc1F)c1cc([N+](=O)[O-])ccc1O [drawing 564, reference compound] | 248 nM | -4.5% | > 1000 nM | 62 nM | – | – | – | – | – |
| O=C(Nc1nc(C(F)(F)F)c(Br)s1)c1cc(Br)ccc1O [Compound No. 187] | – | – | – | – | 649 nM | 414 nM | 85.3% | 94.4% | – |
| COc1ccc(C(F)(F)F)cc1NC(=O)c1cc(Br)ccc1O [Compound No. 94] | – | – | – | – | – | 266 nM | 76.6% | 93.4% | – |
| O=C(Nc1cc(C(F)(F)F)cc(C(F)(F)F)c1)c1cc(-c2ccsc2)ccc1O [Compound No. 29] | – | – | – | – | – | – | 81.7% | 92.9% | Inhibitory Ratio of Proliferation(%) Compound Concentration 250 nM [5]: 52.2%; Inhibitory Ratio of Proliferation(%) Compound Concentration 500 nM [5]: 90.4% |
| O=C(Nc1cc(C(F)(F)F)cc(C(F)(F)F)c1)c1cc(C(F)(F)F)ccc1O [Compound No. 25] | – | – | – | – | 452 nM | – | 96.4% | 99.6% | – |
| O=C(Nc1cc(C(F)(F)F)cc(C(F)(F)F)c1)c1ccc2ccccc2c1O [Compound No. 71] | – | – | – | – | – | – | 89.6% | 95.0% | Inhibitory Ratio of Proliferation(%) Compound Concentration 250 nM [5]: 81.6%; Inhibitory Ratio of Proliferation(%) Compound Concentration 500 nM [5]: 92.4% |
| O=C(Nc1ccc(F)cc1F)c1cc(I)ccc1O [reference compound] | 85 nM | -23% | > 1000 nM | 730 nM | – | – | – | – | – |
